Laboratory results as given in PubChem BioAssay AID1963962 (Molecular Pharmacology Branch, DTP, NCI, 2024).
One block for each compound: values may come before it.

Test system: 967376-340-R-J2-PDC multicell spheroid viability
Assay: Anticancer human tumor 967376-340-R-J2-PDC patient-derived colon adenocarcinoma cell line growth inhibition [PI3K]
Details: for IC50: curve of first compound; for viability, T/C: stronger effect = lower value
Summary of the method: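 Tumor cells grown as multi-cell spheroids with HUVEC endothelial cells and MSC fibroblast-like stroma were treated with targeted agents combined with inavolisib, alpelisib, duvelisib or copanlisib. Doses fell in half-log steps from near clinical Cmax, else from 10 microM. Viability was measured.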

[1] = second compound 0.0316 µM, first compound 0.0316 µM
[2] = second compound 0.0316 µM, first compound 0.1 µM
[3] = second compound 0.0316 µM, first compound 0.316 µM
[4] = second compound 0.0316 µM, first compound 1 µM
[5] = second compound 0.0316 µM, first compound 3.16 µM
[6] = second compound 0.0316 µM, first compound 10 µM
[7] = second compound 0.1 µM, first compound 0.0316 µM
[8] = second compound 0.1 µM, first compound 0.1 µM
[9] = second compound 0.1 µM, first compound 0.316 µM
[10] = second compound 0.1 µM, first compound 1 µM
[11] = second compound 0.1 µM, first compound 3.16 µM
[12] = second compound 0.1 µM, first compound 10 µM
[13] = second compound 0.316 µM, first compound 0.0316 µM
[14] = second compound 0.316 µM, first compound 0.1 µM
[15] = second compound 0.316 µM, first compound 0.316 µM
[16] = second compound 0.316 µM, first compound 1 µM
[17] = second compound 0.316 µM, first compound 3.16 µM
[18] = second compound 0.316 µM, first compound 10 µM
[19] = second compound 1 µM, first compound 0.0316 µM
[20] = second compound 1 µM, first compound 0.1 µM
[21] = second compound 1 µM, first compound 0.316 µM
[22] = second compound 1 µM, first compound 1 µM
[23] = second compound 1 µM, first compound 3.16 µM
[24] = second compound 1 µM, first compound 10 µM
[25] = second compound 3.16 µM, first compound 0.0316 µM
[26] = second compound 3.16 µM, first compound 0.1 µM
[27] = second compound 3.16 µM, first compound 0.316 µM
[28] = second compound 3.16 µM, first compound 1 µM
[29] = second compound 3.16 µM, first compound 3.16 µM
[30] = second compound 3.16 µM, first compound 10 µM
[31] = second compound 10 µM, first compound 0.0316 µM
[32] = second compound 10 µM, first compound 0.1 µM
[33] = second compound 10 µM, first compound 0.316 µM
[34] = second compound 10 µM, first compound 1 µM
[35] = second compound 10 µM, first compound 3.16 µM
[36] = second compound 10 µM, first compound 10 µM
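Further: spheroids exposed to agents for 7 days before read-out.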
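Wherever viability, T/C is given: luminescence used as surrogate of cell viability.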

IC50 (second compound 0.0316 µM): > 10 µM | IC50 (second compound 0.1 µM): > 10 µM | IC50 (second compound 0.316 µM): > 10 µM | IC50 (second compound 1 µM): > 10 µM | IC50 (second compound 3.16 µM): > 10 µM | IC50 (second compound 10 µM): > 10 µM
Structure (SMILES): CC(Cn1ccc(-c2ccc(C#N)c(Cl)c2)n1)NC(=O)c1cc(C(C)O)[nH]n1 (stereo not drawn) + CC(Nc1ncnc2nc[nH]c12)c1cc2cccc(Cl)c2c(=O)n1-c1ccccc1
viability, T/C [1]: 95.7% | viability, T/C [2]: 87.5% | viability, T/C [3]: 89.4% | viability, T/C [4]: 110% | viability, T/C [5]: 87.5% | viability, T/C [6]: 91.8% | viability, T/C [7]: 117% | viability, T/C [8]: 102% | viability, T/C [9]: 104% | viability, T/C [10]: 94.3% | viability, T/C [11]: 81.8% | viability, T/C [12]: 85.6% | viability, T/C [13]: 112% | viability, T/C [14]: 97.3% | viability, T/C [15]: 86.7% | viability, T/C [16]: 87.5% | viability, T/C [17]: 89% | viability, T/C [18]: 78.6% | viability, T/C [19]: 107% | viability, T/C [20]: 83.3% | viability, T/C [21]: 91.9% | viability, T/C [22]: 83.8% | viability, T/C [23]: 83.9% | viability, T/C [24]: 82.4% | viability, T/C [25]: 95.4% | viability, T/C [26]: 103% | viability, T/C [27]: 91.5% | viability, T/C [28]: 87.5% | viability, T/C [29]: 69.2% | viability, T/C [30]: 92.5% | viability, T/C [31]: 91.5% | viability, T/C [32]: 88.6% | viability, T/C [33]: 90% | viability, T/C [34]: 103% | viability, T/C [35]: 83.7% | viability, T/C [36]: 80.7%

IC50 (second compound 0.0316 µM): > 0.1 µM | IC50 (second compound 0.1 µM): > 0.1 µM | IC50 (second compound 0.316 µM): > 0.1 µM | IC50 (second compound 1 µM): > 0.1 µM | IC50 (second compound 3.16 µM): > 0.1 µM | IC50 (second compound 10 µM): > 0.1 µM
Structure (SMILES): CC(C)n1nc(-c2ccc3oc(N)nc3c2)c2c(N)ncnc21 + CC(Nc1ncnc2nc[nH]c12)c1cc2cccc(Cl)c2c(=O)n1-c1ccccc1
viability, T/C (second compound 0.0316 µM, first compound 0.000316 µM): 109% | viability, T/C (second compound 0.0316 µM, first compound 0.001 µM): 92.2% | viability, T/C (second compound 0.0316 µM, first compound 0.00316 µM): 96.6% | viability, T/C (second compound 0.0316 µM, first compound 0.01 µM): 98.6% | viability, T/C [1]: 97.5% | viability, T/C [2]: 59.1% | viability, T/C (second compound 0.1 µM, first compound 0.000316 µM): 90.1% | viability, T/C (second compound 0.1 µM, first compound 0.001 µM): 94.5% | viability, T/C (second compound 0.1 µM, first compound 0.00316 µM): 90.6% | viability, T/C (second compound 0.1 µM, first compound 0.01 µM): 103% | viability, T/C [7]: 80.8% | viability, T/C [8]: 69.9% | viability, T/C (second compound 0.316 µM, first compound 0.000316 µM): 113% | viability, T/C (second compound 0.316 µM, first compound 0.001 µM): 104% | viability, T/C (second compound 0.316 µM, first compound 0.00316 µM): 99.9% | viability, T/C (second compound 0.316 µM, first compound 0.01 µM): 98.5% | viability, T/C [13]: 77% | viability, T/C [14]: 54.7% | viability, T/C (second compound 1 µM, first compound 0.000316 µM): 124% | viability, T/C (second compound 1 µM, first compound 0.001 µM): 97% | viability, T/C (second compound 1 µM, first compound 0.00316 µM): 89.9% | viability, T/C (second compound 1 µM, first compound 0.01 µM): 90.1% | viability, T/C [19]: 71% | viability, T/C [20]: 53% | viability, T/C (second compound 3.16 µM, first compound 0.000316 µM): 101% | viability, T/C (second compound 3.16 µM, first compound 0.001 µM): 94.3% | viability, T/C (second compound 3.16 µM, first compound 0.00316 µM): 93.9% | viability, T/C (second compound 3.16 µM, first compound 0.01 µM): 80.4% | viability, T/C [25]: 81.3% | viability, T/C [26]: 62.2% | viability, T/C (second compound 10 µM, first compound 0.000316 µM): 93% | viability, T/C (second compound 10 µM, first compound 0.001 µM): 81.4% | viability, T/C (second compound 10 µM, first compound 0.00316 µM): 76.7% | viability, T/C (second compound 10 µM, first compound 0.01 µM): 88% | viability, T/C [31]: 73.3% | viability, T/C [32]: 61.3%

IC50 (second compound 0.0316 µM): > 10 µM | IC50 (second compound 0.1 µM): > 10 µM | IC50 (second compound 0.316 µM): > 10 µM | IC50 (second compound 1 µM): > 10 µM | IC50 (second compound 3.16 µM): > 10 µM | IC50 (second compound 10 µM): > 10 µM
Structure (SMILES): CNC(=O)c1ccc(N2C(=S)N(c3ccc(C#N)c(C(F)(F)F)c3)C(=O)C2(C)C)cc1F + Cc1nc(NC(=O)N2CCCC2C(N)=O)sc1-c1ccnc(C(C)(C)C(F)(F)F)c1
viability, T/C [1]: 72.6% | viability, T/C [2]: 93.5% | viability, T/C [3]: 90.1% | viability, T/C [4]: 98.6% | viability, T/C [5]: 107% | viability, T/C [6]: 105% | viability, T/C [7]: 129% | viability, T/C [8]: 85.5% | viability, T/C [9]: 86.8% | viability, T/C [10]: 88.5% | viability, T/C [11]: 101% | viability, T/C [12]: 84% | viability, T/C [13]: 64.2% | viability, T/C [14]: 72.8% | viability, T/C [15]: 92.6% | viability, T/C [16]: 83.5% | viability, T/C [17]: 115% | viability, T/C [18]: 85.8% | viability, T/C [19]: 65.6% | viability, T/C [20]: 70% | viability, T/C [21]: 65.6% | viability, T/C [22]: 68.5% | viability, T/C [23]: 79.7% | viability, T/C [24]: 75% | viability, T/C [25]: 58.9% | viability, T/C [26]: 62.6% | viability, T/C [27]: 58.7% | viability, T/C [28]: 55.9% | viability, T/C [29]: 63.6% | viability, T/C [30]: 59% | viability, T/C [31]: 63.9% | viability, T/C [32]: 55% | viability, T/C [33]: 53.2% | viability, T/C [34]: 57.3% | viability, T/C [35]: 47.3% | viability, T/C [36]: 59.5%

IC50 (second compound 0.00316 µM): > 10 µM | IC50 (second compound 0.01 µM): 9.81 µM | IC50 (second compound 0.0316 µM): > 10 µM | IC50 (second compound 0.1 µM): 8.12 µM | IC50 (second compound 0.316 µM): > 10 µM | IC50 (second compound 1 µM): 3.83 µM
Structure (SMILES): CCCS(=O)(=O)Nc1ccc(F)c(C(=O)c2c[nH]c3ncc(-c4ccc(Cl)cc4)cc23)c1F + CC(Nc1ccc2c(c1)OCCn1cc(N3C(=O)OCC3C(F)F)nc1-2)C(N)=O
viability, T/C (second compound 0.00316 µM, first compound 0.0316 µM): 87.1% | viability, T/C (second compound 0.00316 µM, first compound 0.1 µM): 77.7% | viability, T/C (second compound 0.00316 µM, first compound 0.316 µM): 98.3% | viability, T/C (second compound 0.00316 µM, first compound 1 µM): 60.2% | viability, T/C (second compound 0.00316 µM, first compound 3.16 µM): 81.4% | viability, T/C (second compound 0.00316 µM, first compound 10 µM): 53.4% | viability, T/C (second compound 0.01 µM, first compound 0.0316 µM): 95.5% | viability, T/C (second compound 0.01 µM, first compound 0.1 µM): 86.5% | viability, T/C (second compound 0.01 µM, first compound 0.316 µM): 88.7% | viability, T/C (second compound 0.01 µM, first compound 1 µM): 70.3% | viability, T/C (second compound 0.01 µM, first compound 3.16 µM): 89.4% | viability, T/C (second compound 0.01 µM, first compound 10 µM): 49.6% | viability, T/C [1]: 72% | viability, T/C [2]: 79.6% | viability, T/C [3]: 65.2% | viability, T/C [4]: 93.3% | viability, T/C [5]: 91.9% | viability, T/C [6]: 67.8% | viability, T/C [7]: 69.9% | viability, T/C [8]: 73.8% | viability, T/C [9]: 80.3% | viability, T/C [10]: 77.9% | viability, T/C [11]: 81.5% | viability, T/C [12]: 44.1% | viability, T/C [13]: 64.5% | viability, T/C [14]: 61.3% | viability, T/C [15]: 73.8% | viability, T/C [16]: 76.2% | viability, T/C [17]: 75.2% | viability, T/C [18]: 37.6% | viability, T/C [19]: 61.5% | viability, T/C [20]: 55.5% | viability, T/C [21]: 58.9% | viability, T/C [22]: 56% | viability, T/C [23]: 52.6% | viability, T/C [24]: 39.5%
